Data taken from patent US12613239B2, “Live imaging system to visualize the retro-transcribed viral DNA genome” (priority 2019, dated 2026).
Where two headings read alike, the source gives them in different places.

Columns and labels:
[1] = tested on: HIV-1 CA and IN association; format: cell-based; details: 24 h
viral CA = viral CA (Human immunodeficiency virus type 1 group M subtype B, UniProt P04591); details: cited from earlier work
HIV-1 viral RNA = format: cell-based; details: 24 h
[2] = tested on: HIV-1 ANCH3 (HIV-1ΔEnvINHAΔNef ANCH3/VSV-G); format: cell-based
[3] = tested on: lentiviral particles pseudotyped with Spike from SARS-CoV2 (S-LV-ANCH3); format: cell-based

SMILES: Cc1[nH]c2ccccc2c1CC(=O)N[C@@H](Cc1ccccc1)C(=O)N(C)c1ccccc1 [PF74]
- Association between CA and IN ([1]; high dose of PF74 (10 μM)): lost
- Association between CA and IN ([1]; low dose of PF74 (1.25 μM)): preserved to levels comparable to samples without drug at 6 h post infection
- Mechanism at high concentration (viral CA): accelerates uncoating and blocks reverse transcription
- Mechanism at low concentration (viral CA): directly competes with the binding of host viral partners
- Viral RNA of the incoming cores (HIV-1 viral RNA; high dose of PF74 (10 μM)): completely degraded
- Viral RNA of the incoming cores (HIV-1 viral RNA; low dose of PF74 (1.25 μM)): not completely degraded
- Detection of viral DNA inside the nucleus [2]: detect the viral DNA inside the nucleus only in the absence of PF74
- Viral nuclear entry [2]: blocked viral nuclear entry

SMILES: CCN(CCO)CCCC(C)Nc1ccnc2cc(Cl)ccc12 (stereo not shown) [hydroxychloroquine]
- Viral entry of S-LV-ANCH3 [3]: inhibit viral entry

SMILES: Cc1ccnc2c1NC(=O)c1cccnc1N2C1CC1 [NEV, nevirapine]
- Intranuclear spots counted in 20 cells [2]: 0 detections
